Laboratory results: patent publication US20250090472A1, “LIPID NANOPARTICLE COMPOSITIONS AND USES THEREOF” (BEIJING JITAI PHARMACEUTICAL TECHNOLOGY CO., LTD., priority 2023, published 2025)

Tested on: C57BL/6 mice
Test: In vivo bioluminescence assay of LNPs encapsulating luciferase mRNA (without permanently cationic lipid)
Settings: intravenous single dose 0.5 mg/kg luciferase mRNA, 6 h after administration, group mean
Procedure: The delivery effect and safety of nanoparticles encapsulated with luciferase mRNA (Trilink, L-7202) in mice were evaluated. The test mice were SPF-grade C57BL/6 mice, female, 6-8 weeks old, weighing 18-22 g, and were purchased from SPF (Beijing) Biotechnology Co., Ltd. All animals were acclimatized for more than 7 days prior to the experiment, and had free access to food and water during the experiment. The conditions include alternating light and dark for 12/12 h, the indoor temperature of 20-26° C. and the humidity of 40-70%. The mice were randomly grouped. The lipid nanoparticles encapsulated with luciferase mRNA prepared above were injected into mice by intravenous administration at a single dose of 0.5 mg/kg mRNA, and the mice were subjected to in vivo bioluminescence assay using a Small Animal In Vivo Imaging System (IVIS LUMINA III, purchased from PerkinElmer) at 6 h after administration. The assay was performed as follows: D-luciferin solution was prepared in saline at a concentration of 15 mg/mL, and each mouse was given the substrate by intraperitoneal injection. At ten minutes after administration of the substrate, the mice were anesthetized in an anesthesia chamber with isoflurane at a concentration of 2.5%. The anesthetized mice were placed in IVIS for luminescent imaging. Data acquisition and analysis were performed on the concentrated distribution area of luminescence.
The in vivo delivery efficiency of lipid nanoparticle carriers was expressed as the mean values of fluorescence intensity and total photon count in different animals measured at 6 hours after administration of the lipid nanoparticle within the same subject group, as shown in Table 4. Higher values of fluorescence intensity and total photon count indicate higher in vivo delivery efficiency of this mRNA fragment by the lipid nanoparticles.

Row | SMILES | Total photon count in vivo (Total Flux)
1 | CCCCCCCCCSC(=O)C(C)(C)CCCCCC(CCCCCC(C)(C)C(=O)OCC#CCCC(CCCC)CCCC)OC(=O)CCCN(C)C (centres unmarked) [Compound 119] | 3.25E+10
2 | CCCCC/C=C\C/C=C\CCCCCCCCC(CCCCCCCC/C=C\C/C=C\CCCCC)OC(=O)CCCN(C)C [Dlin-MC3-DMA, reference compound] | 8.04E+09
3 | CCCCCCCCCCOC(=O)C(C)(C)CCCCCC(CCCCCC(C)(C)C(=O)OCCCCCCCCCC)OC(=O)C1CCN(C)CC1 [Compound 99] | 5.30E+09
4 | CCCCCCCCCCOC(=O)C(C)(C)CCCCCC(CCCCCC(C)(C)C(=O)OCCCCCCCCCC)OC(=O)CCN(C)C [Compound 1] | 6.43E+08
5 | CCCCCCCCN(CCCCCCCC)CCOC(=O)C(C)(C)CCCCCC(CCCCCC(C)(C)C(=O)OCCN(CCCCCCCC)CCCCCCCC)OC(=O)CCN(C)C [Compound 15] | 4.89E+08
6 | CCCCCCCCCOC(=O)CC(C)(C)CCCCC(CCCCC(C)(C)CC(=O)OCCCCCCCCC)OC(=O)CCCN(C)C [Compound 97] | 3.37E+09
7 | CCCCCCCCCOC(=O)C(C)(C)CCCCCC(CCCCCC(C)(C)C(=O)OCCCCCCCCC)OC(=O)CC1CCN(CCO)CC1 [Compound 113] | 3.59E+08
8 | CCCCCCCCCSC(=O)C(C)(C)CCCCCC(CCCCCC(C)(C)C(=O)SCCCCCCCCC)OC(=O)CC1CCN(CCO)CC1 [Compound 110] | 2.06E+08
9 | CC(C)CCCCCCCOC(=O)CCC(C)(C)CCCC(CCCC(C)(C)CCC(=O)OCCCCCCCC(C)C)OC(=O)CCCN(C)C [Compound 127] | 3.59E+10
10 | CCCCCCC#CCCOC(=O)C(C)(C)CCCCCC(CCCCCC(C)(C)C(=O)OCCC#CCCCCCC)OC(=O)CCCN(C)C [Compound 24] | 5.56E+09
11 | CCCCCCCCCOC(=O)C(C)(C)CCCCCC(CCCCCC(C)(C)C(=O)OCC(CCCCC)CCCCCCC)OC(=O)CC1CCN(CCO)CC1 (centres unmarked) [Compound 114] | 1.06E+08
